Data on eleven compounds can be found in patent publication US8492578B2, “Compounds useful in therapeutic and cosmetic methods” (Photoderma SA, priority 2007, dated 2013).

Entries after “also recorded” stand apart in the source; their conditions may differ. Like-named read-outs stand apart in the source and are kept apart here.

For data set [1] the following is noted: literature reports and Metvix package leaflet; cited from earlier work.
A further data set relates to hair follicles. Kind of data set: Fluorescence imaging of skin after hair removal (selectivity for hair follicle). Conditions: for distribution of fluorescence on skin: 20 wt. % formulation, applied after epilation. Format: in vivo, human. The method, then:
FIGS. 1-10 are fluorescence images of human forearm or leg skin areas of 2.5 cm in diameter, the pictures being taken three hours after administration of different photosensitizer precursors under variable experimental conditions.
FIGS. 1A-B are fluorescence photographs of human skin to which compounds of the invention were applied. A formulation containing phenylalanin-ALA-amide (compound 1) at 80 wt. % was topically applied to the skin and pictures were taken 3 hours following administration. In FIG. 1A, skin was not pre-treated and fluorescence was measured with 20 milliseconds (ms) exposure time. In FIG. 1B, hair was mechanically removed by wax-epilation before administration of the formulation and fluorescence was measured with 10 milliseconds (ms) exposure time.
Formulations comprising compounds of the invention and controls are administered topically on the forearm or the leg using the Tegaderm™ transparent dressing. This dressing enables the transport of water and oxygen according to the specifications of the manufacturer. […]
A fluorescence imaging system illustrated in FIG. IX of WO 03/041673 is used to assess the extent and level of PpIX production in “macroscopic” samples (parts of the human body such as: forearm, leg, back, etc.). […] As the goal is to assess the relative level of PpIX, red light at 635 nm is chosen as PpIX fluorescence excitation wavelength. It is indeed well known that red light penetrates deeper in the cutaneous tissues than green and violet light, the later two wavelengths corresponding to larger PpIX absorption peaks (see the PpIX fluorescence excitation and emission spectra presented on the right side in FIG. IX of WO 03/041673).
As presented in the schematic diagram presented in FIG. IX of WO 03/041673, this fluorescence imaging system involves a modified 300 W D-light source 1 (Xe arc lamp from Storz, Tuttlingen, Germany) equipped with a red bandpass filter (635 nm, 20 nm FWHM; Chroma, USA). This fluorescence excitation light is coupled in a Storz 4 mm diameter light guide 2. […]

The test system of a further data set is stratum corneum. Put plainly: PpIX fluorescence on intact skin vs skin with stratum corneum removed (permeability through stratum corneum). Conditions: for Fluoresence epidermis: Cold cream formulation, 3 hours after topical administration; for increase of fluorescence upon removal of the stratum corneum: SC removed vs intact skin. Format: in vivo, human. As for the experimental part:
Permeability of compounds of the invention through the stratum corneum is assessed by measurements of fluorescence of PpIX. The expression “PpIX”, for the purpose of the present specification, stands for PpIX as reported in the literature and other natural porphyrins producing a fluorescent signal following illumination with suitable light. Permeability of the compounds of the present invention is determined by comparing PpIX-induced fluorescence of compounds of the invention applied on the surface of intact skin with fluorescence induced by the same compounds applied on skin from which the stratum corneum has been removed.
The stratum corneum was removed by dry shaving with a razor blade (BIC Classic 1 lame). The lame is gently swept 8 times over the skin without using water, razor foam or any other lubricant.
Formulations comprising compounds of the invention and controls are administered topically on the forearm or the leg using the Tegaderm™ transparent dressing. This dressing enables the transport of water and oxygen according to the specifications of the manufacturer. This dressing was removed and the remaining formulation cleaned with water just before the measurements.
A fluorescence imaging system illustrated in FIG. IX of WO 03/041673 is used to assess the extent and level of PpIX production in “macroscopic” samples (parts of the human body such as: forearm, leg, back, etc.). The experimental equipment and descriptions, as well as the ALA-DGME compounds disclosed therein are expressly incorporated herein by reference. As the goal is to assess the relative level of PpIX, red light at 635 nm is chosen as PpIX fluorescence excitation wavelength. It is indeed well known that red light penetrates deeper in the cutaneous tissues than green and violet light, the later two wavelengths corresponding to larger PpIX absorption peaks (see the PpIX fluorescence excitation and emission spectra presented on the right side in FIG. IX of WO 03/041673).
As presented in the schematic diagram presented in FIG. IX of WO 03/041673, this fluorescence imaging system involves a modified 300 W D-light source 1 (Xe arc lamp from Storz, Tuttlingen, Germany) equipped with a red bandpass filter (635 nm, 20 nm FWHM; Chroma, USA). This fluorescence excitation light is coupled in a Storz 4 mm diameter light guide 2. The output of this light guide is imaged on the tissue sample 3 with a projection objective 4 (Nikon, Japan; A F Nikkor; 1:1.4 D/50 mm) to generate a homogenous spot of 2.5 cm in diameter with an irradiance of 2 mW/cm^2 at 635 nm. The distance between this projection objective 4 and the sample 3 is 25 cm. Therefore, the light beam illuminating the sample can be considered as parallel. The fluorescence is collected by another objective 5 (Fujinon, Japan; TV zoom lens; 1:1.2/12.5-75 mm; Type H6X12.5R-MD3) through a longpass filter 6 (Schott, Germany; RG665) and the image detected by a scientific CCD camera (752×582 pixels CF 8/1 Kappa, Gleichen, Germany) equipped 7 with an image intensifier (Proxifier BV 256-2FcZ-CH, Proxitronic, Bensheim, Germany). The images are captured by the 8-bits camera frame grabber and saved on the computer 8 with the “Kappa Imagebase-control” software. Image treatment is carried out using the IPLab imaging software. The spatial resolution of the complete setup has been measured with an USAF resolution target and the value we obtained in the sample plan is 3 lp/mm, the size of the image detected by the camera being 3×4 cm^2.
A reference sample is been designed to enable a comparison of the relative fluorescence brightness between samples investigated at different times. This reference consists of a ruby disk (diameter: 12 mm; thickness: 1.02 mm; Type 8Sp3, Hans Stettler S A, Lyss, Switzerland) covered with a neutral density filter (T=2.27%) so that the signal obtained with this reference sample corresponds to the typical tissue fluorescence detected in our conditions. The images are analyzed using the NIH image software. […]

In another data set the test system is Propionobacterium acnes. Kind of data set: Photodestruction of P. acnes immediately after PDT. Format: in vivo, human. Conditions: face of a volunteer. The text has this: Immediately after illumination, the bacteria present on the administration zone are collected by immersion in a collection buffer allowing bacteria to detach and survive in suspension. Collection samples are inoculated, after suitable dilution, on agar plates, which are selective for p. acnes. CFU (Colony Forming Units) are counted after 5 days of growth on selective medium.

A further data set has as its system sebaceous gland. Kind of data set: Microscopic fluorescence image of tissue sample. Particulars: formulation comprising 20 wt. %.
In the next data set the test system is Pytirosporum ovale. Kind of data set: Photodestruction of the yeast P. ovale 24 hours after PDT. Format: in vivo, human. Particulars: 5 wt. % in Cold cream; 3 hours, then 5-15 J/cm^2 red light; 24 hours after light exposure. As for the experimental part:
24 hours after the end of the light exposure, scales are collected using a patch-strip method (D-Squame. Cuderm Corp. Dallas. US) and P. ovale can be counted under fluorescence microscope using a fluorochrome which is selective for this type of yeast (Fungiqual A. Kandern. D E).

Data set [2] deals with skin area affected with seborrheic dermatitis. Put plainly: Cosmetic PDT treatment of seborrheic dermatitis. In kind it is in vivo, human. Conditions: 5% in Cold cream.
Where [3] appears, read: skin treatment: No (intact skin).
Where [4] appears, read: skin treatment: SC removed by dry shaving.
Where [5] appears, read: fluorescence on intact skin relative to skin with SC removed.

Experimental for psoriatic plaque: ALA-DGME 5% is prepared in Cold cream as in the previous example. 50 mg of 5% ALA-DGME in Cold cream are applied to the psoriatic plaque. 3 hours later, the zone which received ALA-DGME is exposed to 10-30 J/cm^2 of red light. The treatment is repeated 6 times with a 2 weeks interval.

For the compound `NCC(=O)CCC(=O)O` [ALA, 5-aminolevulinic acid, reference compound], the allergenic potential result in data set [1] is “has not demonstrated such an allergenic potential”. The “distribution of fluorescence on skin” value in the data set on hair follicles was “fluorescence is non-specific and uniformly distributed over the entire skin area”. In addition, the “Penetration through epidermis (%)” value in the data set on stratum corneum (human) is 59.6%. The Fluoresence epidermis was determined as 31 arbitrary relative units in the data set with stratum corneum (setting [3]) and 52 arbitrary relative units in the data set with stratum corneum (setting [4]).

Regarding `CCOCCOCCOC(=O)CCC(=O)CN` [ALA-DGME, diethylene-glycol monoethyl ether ester of ALA], the “adverse reaction on the skin” value in the data set with Propionobacterium acnes (5% in Cold cream plus red light) is listed as “No adverse reaction was observed”. Besides, in the data set on Propionobacterium acnes (5% in Cold cream, 3 hours, then 5-15 J/cm^2 red light, immediately after illumination), the “reduction in Propionobacerium acnes counts (CFU)” value is “suitable to kill microorganism present on the skin; also recorded: substantial reduction of bacterial counts”. In addition, the “fluorescence in tissue sample (microscopic image)” value in the data set on sebaceous gland is “fluorescence in sebaceous gland”. The “reduction in Pytirosporum ovale counts” value with Pytirosporum ovale was “substantial reduction of yeast counts”. For the same compound, the “distribution of fluorescence on skin” value in the data set on hair follicles is listed as “fluorescence is discretely associated to specific small spots”. Further, the “Penetration through epidermis (%)” value with stratum corneum (setting [5]) is 35.1%. Also, the Fluoresence epidermis came out at 20 arbitrary relative units in the data set on stratum corneum (setting [3]) and 57 arbitrary relative units with stratum corneum (setting [4]). The “side effects to the surrounding skin” value in data set [2] (24 hours after PDT) is on record as “no side effects to the surrounding skin”; with psoriatic plaque (after several PDT treatments, 5% in Cold cream), “no side effects to the surrounding skin”. Moreover, the “skin reaction after PDT” value in data set [2] (24 hours after PDT, 5-15 J/cm^2 red light) is reported as “slight redness”. In addition, the “selectivity of fluorescence for affected skin” value in data set [2] (topically applied on skin with seborrheic dermatitis, 3 hours) is “accumulated specifically in the skin area affected with SD; also recorded: only affected skin area shows red fluorescence”. Besides, the “psoriasis plaque after several PDT treatments” value with psoriatic plaque (5% in Cold cream, 10-30 J/cm^2 red light, repeated 6 times with 2 weeks interval) is recorded as “partial clearance”. The “accumulation of photosensitizer in psoriasis lesions (red fluorescence)” value in the data set on psoriatic plaque (5% in Cold cream, 3 hours) was “accumulated specifically in the psoriasis lesions”. In addition, the “selectivity of fluorescence for psoriasis plaque” value in the data set with psoriatic plaque (formulation comprising 20 wt. % (figure legend)) is “red fluorescence covering the psoriasis plaque solely”.

`NCC(=O)CCC(=O)NC(Cc1ccccc1)C(=O)O` (stereo not shown) [Compound 1, Phenylalanine-ALA-amide]: in the data set on hair follicles (80 wt. % formulation, hair removed by wax-epilation, 3 hours after administration, 10 ms exposure), the “fluorescence at positions of hair follicles” value is listed as “spots of high fluorescence”.

Take `NCC(=O)CCC(=O)Oc1ccc(CC(N)C(=O)O)cc1` (stereo not shown) [Compound 2, Tyrosine-ALA-ester]: the results for the Fluoresence epidermis in the data set with stratum corneum (setting [3]) and with stratum corneum (setting [4]) were 0 arbitrary relative units and 114 arbitrary relative units, respectively.

As to `CC(C)CCCC(C)C1CCC2C3CC=C4CC(OC(=O)CCC(=O)CN)CCC4(C)C3CCC12C` (stereo not shown) [Compound 6, ALA-Cholesteryl-ester], the “increase of fluorescence upon removal of the stratum corneum” value in the data set on stratum corneum was determined as 25 fold. Moreover, the “Penetration through epidermis (%)” value in the data set on stratum corneum (human) is reported as 4%. The results for the Fluoresence epidermis in the data set with stratum corneum (setting [3]) and in the data set with stratum corneum (setting [4]) were 1 arbitrary relative units and 25 arbitrary relative units, respectively.

Take `NCC(=O)CCC(=O)O[C@H]1O[C@H](CO)[C@@H](O)[C@H](O)[C@H]1O` [Compound 11, 1′-α-D-Glucose-ALA-ester]: the “Penetration through epidermis (%)” value in the data set with stratum corneum (setting [5]) turned out to be 0%. The Fluoresence epidermis with stratum corneum (setting [3]) is 0 arbitrary relative units; in the data set on stratum corneum (setting [4]), 12 arbitrary relative units.

In the case of `NCC(=O)CCC(=O)OCC(O)C1OC(=O)C(O)=C1O` (stereo not shown) [Compound 12, ALA-ascorbate-ester], the values for the Fluoresence epidermis with stratum corneum (setting [3]) and in the data set on stratum corneum (setting [4]) were 4 arbitrary relative units and 20 arbitrary relative units, respectively.

Take `CCCCCCOC(=O)CCC(=O)CN` [Hexyl-ALA-ester, reference compound]: in the data set on stratum corneum, the “Penetration through epidermis (%)” value is given as 42%. For the same compound, the values for the Fluoresence epidermis in the data set with stratum corneum (setting [3]) and with stratum corneum (setting [4]) were 37 arbitrary relative units and 88 arbitrary relative units, respectively.

As for ALA-Cholesterylhexyl-ester [Compound 5], in the data set on stratum corneum (setting [5]), the “Penetration through epidermis (%)” value is 7.44%. The figures for the Fluoresence epidermis with stratum corneum (setting [3]) and with stratum corneum (setting [4]) were 7 arbitrary relative units and 94 arbitrary relative units, respectively.

Turning to ALA-ethyl-ester-ALA [Compound 8], the “increase of fluorescence upon removal of the stratum corneum” value with stratum corneum amounted to 7.5 fold. For the same compound, the “Penetration through epidermis (%)” value amounted to 13.3% in the data set on stratum corneum (setting [5]) and 13.3% in the data set on stratum corneum (fluorescence on intact skin relative to skin with SC removed, listed as compound 8). Moreover, the Fluoresence epidermis was determined as 30 arbitrary relative units with stratum corneum (setting [3]) and 225 arbitrary relative units with stratum corneum (setting [4]).

“Phloroglucinol-tri-ALA-ester [Compound 7]”: the “Penetration through epidermis (%)” value in the data set with stratum corneum (setting [5]) came to 16%. Moreover, the Fluoresence epidermis in the data set with stratum corneum (setting [3]) was found to be 30 arbitrary relative units; with stratum corneum (setting [4]), 187 arbitrary relative units.
